Laboratory results as given in the supplement of paper PMC10331698.
± gives the standard deviation of the averaged measurements.

Key:
Test in all cases: LOEC (log10 uM (lowest observed effect concentration))
[1] = compound: O=C(CC(=O)C(F)(F)C(F)(F)C(F)(F)F)c1cccs1 [(Perfluorobutyryl)-2-thenoylmethane]
Procedure: (§1)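 BioMAP Diversity Plus panel in human primary cell co-cultures, 4 concentrations in duplicate blinded samples. Responses are log10 fold change versus DMSO control, processed with tcpl v2.1.0. A hit is called when responses at any concentration exceed the cutoff (the larger of 3*bmad or log10(1.2)); the lowest observed effect concentration (modl_ga, log10 uM) is reported for hits.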

[2] = compound: C=CC(=O)OCC(F)(F)C(F)(F)C(F)(F)C(F)(F)COC(=O)C=C [1H,1H,6H,6H-Perfluorohexane-1,6-diol diacrylate]
Procedure: as §1

[3] = compound: OCCCC(F)(F)C(F)(F)C(F)(F)C(F)(F)C(F)(F)C(F)(F)C(F)(F)C(F)(F)F [3-(Perfluorooctyl)propanol]
Procedure: as §1

Perfluorooctanoic acid = compound: O=C(O)C(F)(F)C(F)(F)C(F)(F)C(F)(F)C(F)(F)C(F)(F)C(F)(F)F [Perfluorooctanoic acid]
Procedure: as §1

[4] = compound: FC(F)(I)C(F)(F)C(F)(F)C(F)(F)C(F)(F)C(F)(F)I [1,6-Diiodoperfluorohexane]
Procedure: as §1

Perfluoropinacol = compound: OC(C(F)(F)F)(C(F)(F)F)C(O)(C(F)(F)F)C(F)(F)F [Perfluoropinacol]
Procedure: as §1

[5] = compound: OCCC(F)(F)C(F)(F)C(F)(F)C(F)(F)C(F)(F)C(F)(F)C(F)(F)C(F)(F)F [8:2 Fluorotelomer alcohol]
Procedure: as §1

[6] = compound: OCC(F)(F)C(F)(F)C(F)(F)C(F)(F)C(F)(F)C(F)(F)C(F)(F)C(F)(F)CO [1H,1H,10H,10H-Perfluorodecane-1,10-diol]
Procedure: as §1

[7] = compound: Cc1ccc(S(=O)(=O)OCC(F)(F)C(F)(F)C(F)(F)C(F)(F)C(F)(F)C(F)F)cc1 [1H,1H,7H-Perfluoroheptyl 4-methylbenzenesulfonate]
Procedure: as §1

[8] = compound: C=CC(=O)OCC(F)(F)C(F)(F)C(F)(F)C(F)(F)C(F)(F)C(F)(F)C(F)(F)C(F)F [1H,1H,9H-Perfluorononyl acrylate]
Procedure: as §1

[9] = compound: FC(F)(F)C(F)(F)C(F)(F)C(F)(F)CCI [1H,1H,2H,2H-Perfluorohexyl iodide]
Procedure: as §1

[10] = compound: OCC(F)(F)C(F)(F)C(F)(F)C(F)(F)C(F)(F)C(F)(F)C(F)(F)C(F)(F)C(F)(F)C(F)(F)C(F)(F)F [11:1 Fluorotelomer alcohol]
Procedure: as §1

[11] = compound: O=C(O)C(F)(F)C(F)(F)C(F)(F)C(F)(F)C(F)(F)C(F)(F)C(F)(F)F [Ammonium perfluorooctanoate]
Procedure: as §1

[12] = compound: O=S(=O)(OCC(F)(F)F)C(F)(F)C(F)(F)C(F)(F)C(F)(F)F [2,2,2-Trifluoroethyl perfluorobutanesulfonate]
Procedure: as §1

Test System	LOEC (log10 uM) [1]	LOEC (log10 uM) [2]	LOEC (log10 uM) [3]	LOEC (log10 uM) (Perfluorooctanoic acid)	LOEC (log10 uM) [4]	LOEC (log10 uM) (Perfluoropinacol)	LOEC (log10 uM) [5]	LOEC (log10 uM) [6]	LOEC (log10 uM) [7]	LOEC (log10 uM) [8]	LOEC (log10 uM) [9]	LOEC (log10 uM) [10]	LOEC (log10 uM) [11]	LOEC (log10 uM) [12]
IMphg IL10 down	1.3	1.3	1.3	1.78	0.845	1.3	1.07 ± 0.32	1.54 ± 0.34	1.07 ± 0.32	–	–	–	–	–
BF4T tPA down	0.573 ± 0.39	1.3	1.3	1.31 ± 0.66	0.845	–	1.07 ± 0.32	1.3	–	–	–	–	–	–
CASM3C VCAM1 down	1.54 ± 0.34	0.845	1.07 ± 0.32	–	1.3	1.78	1.07 ± 0.32	1.78	–	1.07 ± 0.32	–	–	–	–
BF4T VCAM1 down	1.3	0.845	1.3	–	1.3	1.78	1.07 ± 0.32	1.3	–	–	–	–	–	–
hDFCGF MIG down	1.3	0.301	1.07 ± 0.32	–	0.845	1.78	1.3	1.78	–	1.54 ± 0.34	1.78	–	–	–
BT PBMCCytotoxicity up	–	–	–	1.78	–	–	–	–	–	–	–	–	–	–
4H VCAM1 down	1.3	1.3	1.54 ± 0.34	–	1.3	1.3	1.54 ± 0.34	1.78	–	–	–	–	–	–
hDFCGF CollagenI up	–	–	–	–	–	–	–	–	–	–	–	-1.22	–	–
MyoF ACTA1 down	–	0.845	1.07 ± 0.32	–	0.573 ± 0.39	1.3	1.3	1.78	–	1.78	–	–	–	–
IMphg IL8 up	1.78	–	–	1.78	–	1.07 ± 0.32	1.78	–	–	–	–	–	1.78	–
BE3C IL8 down	1.78	1.3	1.3	–	1.78	1.3	1.3	1.54 ± 0.34	–	–	–	-0.222	–	–
IMphg ESelectin down	1.07 ± 0.32	1.3	1.07 ± 0.32	–	1.3	1.3	1.78	1.54 ± 0.34	–	–	–	–	–	–
SAg PBMCCytotoxicity down	1.78	1.07 ± 0.32	1.3	–	1.3	–	1.3	1.78	–	1.54 ± 0.34	–	-1.22	–	–
LPS TNFa down	–	1.3	0.573 ± 0.39	–	1.3	–	1.78	–	–	–	–	–	–	1.78
LPS IL1a down	–	1.3	0.845	–	1.3	–	1.3	–	–	–	–	-0.222	–	1.54 ± 0.34
BE3C IP10 down	1.3	1.78	1.3	1.78	1.54 ± 0.34	1.3	1.07 ± 0.32	1.3	–	–	–	–	1.78	–
hDFCGF CollagenIII up	–	–	–	–	–	–	–	–	–	–	–	-0.699	–	–
